The source of these data is patent US20240343732A1, “COMPOUNDS FOR DEGRADATION OF CYCLIN-DEPENDENT KINASE 7(CDK7)” (QURIENT CO., LTD., priority 2021, published 2024).

The target of one test is T1, CDK5 (Homo sapiens, UniProt Q00535).
T1 construct: His; purchased Invitrogen PR8543B
Briefly: Binding assay (FRET, LanthaScreen Eu, Tracer236) for CDK5. As to conditions: for IC50: read-out: CDK5 IC50 (enzyme binding assay). The procedure: (§1) Inhibition activity of compound to CDK7 kinase was tested in a binding assay which was applied to the FRET (fluorescence resonance energy transfer) principle from the europium (Eu) donor fluorophore to the acceptor fluorophore on the kinase tracer. Test compounds were made to 1.125 mM of compound solution, and then this compound solution 4-fold serial diluted in 8 steps using an automated liquid handler (JANUS™, PerkinElmer). 80 nL/well of each diluted compound solution was added into the 384-well plate (Greiner, Cat #784075) first and 7.5 ul/well of working solution [5 nM of CDK7/CycH/MNAT1 (Invitrogen, Cat #PR6749B), 4 nM of Biotin anti-His Tag Antibody (Invitrogen, Cat #PV6090), and LanthaScreen® Eu-Streptavidin (Invitrogen, Cat #PV6025)] was added. After mixing the solution well, the same volume with the working solution of Tracer236 (Invitrogen, Cat #PV5592) was added into each well in the plate. The plate was incubated for 60 minutes at room temperature and then all the fluorescence were measured using Envision leader (Perkin Elmer, USA) [Laser as excitation light; […] as the first and the second emission filter]. Data was analysed using XL Fit software.
(§2) All of the synthesized compounds were screened in the above-mentioned assay procedure. To identify the inhibition activity of compounds for other CDKs including CDK1 (Invitrogen, Cat #PR4768C), CDK2 (Invitrogen, Cat #PR4448B) and CDK5 (Invitrogen, Cat #PR8543B) were tested using the same protocol under reasonable concentration of Tracer236 and kinases for each assay. The formula for the assay buffer summarized in below table.
A general note: In TR-FRET formats the signal depends on donor and acceptor labels being close together.

A further test addresses T2, CDK7/CycH/MNAT1 (Homo sapiens, UniProt P50613).
T2 construct: His; purchased Invitrogen PR6749B
Briefly: Binding assay (FRET, LanthaScreen Eu, Tracer236) for CDK7. Conditions: read-out: CDK7 IC50 (enzyme binding assay). The procedure: as §1, §2

A further test deals with T3, CDK1 (Homo sapiens, UniProt P06493).
T3 construct: His; purchased Invitrogen PR4768C
The test can be described thus: Binding assay (FRET, LanthaScreen Eu, Tracer236) for CDK1. Conditions: for IC50: read-out: CDK1 IC50 (enzyme binding assay). As to the method: as §1, §2

Another test concerns the target T4, CDK2 (Homo sapiens, UniProt P24941).
T4 construct: His; purchased Invitrogen PR4448B
The test can be described thus: Binding assay (FRET, LanthaScreen Eu, Tracer236) for CDK2. As to conditions: for IC50: read-out: CDK2 IC50 (enzyme binding assay). The procedure:
as §1, §2

T1 sequence (Q00535 whole entry): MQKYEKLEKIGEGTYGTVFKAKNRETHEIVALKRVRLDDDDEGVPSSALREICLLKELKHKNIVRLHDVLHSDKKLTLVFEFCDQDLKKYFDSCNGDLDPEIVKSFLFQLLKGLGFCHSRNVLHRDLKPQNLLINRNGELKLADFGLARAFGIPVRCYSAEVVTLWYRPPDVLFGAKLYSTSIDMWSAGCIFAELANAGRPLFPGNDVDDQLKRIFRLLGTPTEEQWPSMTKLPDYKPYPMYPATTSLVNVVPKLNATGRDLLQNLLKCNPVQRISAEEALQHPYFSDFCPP
T1 sequence (Q15078 99-307 partner limits assumed): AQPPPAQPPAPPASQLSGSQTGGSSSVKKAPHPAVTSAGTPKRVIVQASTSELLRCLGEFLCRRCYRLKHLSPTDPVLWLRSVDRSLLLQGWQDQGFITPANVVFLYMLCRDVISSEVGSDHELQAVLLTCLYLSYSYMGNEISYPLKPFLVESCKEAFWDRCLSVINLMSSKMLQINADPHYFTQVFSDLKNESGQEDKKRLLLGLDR
T3 sequence (P06493 whole entry): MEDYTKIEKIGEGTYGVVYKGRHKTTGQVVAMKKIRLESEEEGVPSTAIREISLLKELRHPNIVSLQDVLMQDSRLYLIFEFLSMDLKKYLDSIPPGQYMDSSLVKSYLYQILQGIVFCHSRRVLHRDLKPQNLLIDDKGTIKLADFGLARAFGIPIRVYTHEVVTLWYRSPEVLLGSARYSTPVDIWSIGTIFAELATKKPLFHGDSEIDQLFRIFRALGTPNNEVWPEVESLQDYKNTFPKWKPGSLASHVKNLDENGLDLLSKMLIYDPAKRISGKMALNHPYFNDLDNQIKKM
T3 sequence (P14635 whole entry partner): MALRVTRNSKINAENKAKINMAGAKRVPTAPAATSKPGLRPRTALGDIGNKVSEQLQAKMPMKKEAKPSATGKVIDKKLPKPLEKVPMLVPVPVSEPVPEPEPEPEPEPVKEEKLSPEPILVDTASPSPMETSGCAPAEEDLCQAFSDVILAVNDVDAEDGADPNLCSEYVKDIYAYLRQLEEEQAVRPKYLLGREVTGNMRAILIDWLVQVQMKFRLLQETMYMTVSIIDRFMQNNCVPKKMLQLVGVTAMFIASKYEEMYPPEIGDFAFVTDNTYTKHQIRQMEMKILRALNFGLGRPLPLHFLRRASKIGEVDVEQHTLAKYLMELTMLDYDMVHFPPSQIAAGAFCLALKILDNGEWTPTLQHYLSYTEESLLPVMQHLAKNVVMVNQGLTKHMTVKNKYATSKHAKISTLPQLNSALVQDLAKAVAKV
T2 sequence (P50613 whole entry): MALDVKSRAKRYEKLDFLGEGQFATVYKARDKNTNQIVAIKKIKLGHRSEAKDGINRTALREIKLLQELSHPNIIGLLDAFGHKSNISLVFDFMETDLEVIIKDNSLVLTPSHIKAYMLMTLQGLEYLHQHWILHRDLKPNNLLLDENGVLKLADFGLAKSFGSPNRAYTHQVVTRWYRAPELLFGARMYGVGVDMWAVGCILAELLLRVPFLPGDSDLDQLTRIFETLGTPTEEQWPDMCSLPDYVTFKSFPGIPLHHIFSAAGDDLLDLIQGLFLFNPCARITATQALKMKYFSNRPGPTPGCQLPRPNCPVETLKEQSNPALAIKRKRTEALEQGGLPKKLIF
T2 sequence (P51946 whole entry partner): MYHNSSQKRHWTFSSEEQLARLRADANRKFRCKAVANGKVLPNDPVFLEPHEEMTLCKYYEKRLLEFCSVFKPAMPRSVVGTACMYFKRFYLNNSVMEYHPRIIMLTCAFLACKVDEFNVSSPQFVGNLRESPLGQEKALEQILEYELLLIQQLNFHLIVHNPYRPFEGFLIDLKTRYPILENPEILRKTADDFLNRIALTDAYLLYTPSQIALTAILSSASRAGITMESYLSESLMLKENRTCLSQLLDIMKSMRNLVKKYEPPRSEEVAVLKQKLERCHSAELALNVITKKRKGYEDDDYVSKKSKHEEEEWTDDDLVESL
T2 sequence (P51948 whole entry partner): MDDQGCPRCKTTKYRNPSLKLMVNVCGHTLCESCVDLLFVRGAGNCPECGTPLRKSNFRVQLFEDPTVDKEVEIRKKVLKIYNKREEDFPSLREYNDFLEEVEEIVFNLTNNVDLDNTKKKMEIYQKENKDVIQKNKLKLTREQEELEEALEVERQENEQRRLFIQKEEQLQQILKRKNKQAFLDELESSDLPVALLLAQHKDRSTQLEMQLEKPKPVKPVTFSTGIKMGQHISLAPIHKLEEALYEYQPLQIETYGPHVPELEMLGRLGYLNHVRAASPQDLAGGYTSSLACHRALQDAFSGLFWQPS

`CC(C)c1cnn2c(NCc3ccccc3-c3nccc4cc(NC(=O)/C=C/CN(C)CCOCCNC(=O)CNc5cccc6c5C(=O)N(C5CCC(=O)NC5=O)C6=O)ccc34)nc(N3CCC(N)CC3)nc12` (stereo not drawn) [Compound 1]: at CDK5, the “CDK5/CDK7: Selectivity of CDK7 inhibition over CDK5 inhibition” value is “A (A indicates [fold] > 500)” and the IC50 (in general, the point on the concentration scale where inhibition reaches its midpoint) is above 1000 nM. In addition, the IC50 at CDK7/CycH/MNAT1 was at most 100 nM. Moreover, at CDK1, the “CDK1/CDK7: Selectivity of CDK7 inhibition over CDK1 inhibition” value was “A (A indicates [fold] > 500)” and the IC50 is above 1000 nM. Moreover, on CDK2, the “CDK2/CDK7: Selectivity of CDK7 inhibition over CDK2 inhibition” value is “A (A indicates [fold] > 500)” and the IC50 is above 1000 nM.
With `CC(C)c1cnn2c(NCc3ccccc3-c3nccc4cc(NC(=O)/C=C/CN(C)CCOCCOCCNC(=O)CNc5cccc6c5C(=O)N(C5CCC(=O)NC5=O)C6=O)ccc34)nc(N3CCC(N)CC3)nc12` (stereo not drawn) [Compound 2], at CDK5, the “CDK5/CDK7: Selectivity of CDK7 inhibition over CDK5 inhibition” value is “A (A indicates [fold] > 500)” and the IC50 is above 1000 nM. In addition, the IC50 at CDK7/CycH/MNAT1 is at most 100 nM. Moreover, on CDK1, the “CDK1/CDK7: Selectivity of CDK7 inhibition over CDK1 inhibition” value is “A (A indicates [fold] > 500)” and the IC50 was above 1000 nM. At CDK2, the “CDK2/CDK7: Selectivity of CDK7 inhibition over CDK2 inhibition” value is “A (A indicates [fold] > 500)” and the IC50 is above 1000 nM.
In the case of `CC(C)c1cnn2c(NCc3ccccc3-c3nccc4cc(NC(=O)/C=C/CN(C)CCOCCOCCOCCNC(=O)CNc5cccc6c5C(=O)N(C5CCC(=O)NC5=O)C6=O)ccc34)nc(N3CCC(N)CC3)nc12` (stereo not drawn) [Compound 3], at CDK5, the “CDK5/CDK7: Selectivity of CDK7 inhibition over CDK5 inhibition” value is “A (A indicates [fold] > 500)”. The IC50 at CDK5 was above 1000 nM; at CDK7/CycH/MNAT1 it was at most 100 nM; on CDK1 it was above 1000 nM; at CDK2 it was above 1000 nM. Further, the “CDK1/CDK7: Selectivity of CDK7 inhibition over CDK1 inhibition” value at CDK1 was “A (A indicates [fold] > 500)”. On CDK2, the “CDK2/CDK7: Selectivity of CDK7 inhibition over CDK2 inhibition” value was “A (A indicates [fold] > 500)”.
For the molecule `C=C(F)C(=O)Nc1ccc2c(-c3ccccc3CNc3nc(NC[C@H]4CCN(CCOCCOCCNC(=O)CNc5cccc6c5C(=O)N(C5CCC(=O)NC5=O)C6=O)C[C@@H]4O)nc4c(C(C)C)cnn34)nccc2c1` (stereo partly drawn) [Compound 4], on CDK5, the “CDK5/CDK7: Selectivity of CDK7 inhibition over CDK5 inhibition” value was “B (B indicates 50 < [fold] ≤ 500)” and the IC50 was above 1000 nM. Further, at CDK7/CycH/MNAT1, the IC50 is 100 to 1000 nM. Also, on CDK1, the “CDK1/CDK7: Selectivity of CDK7 inhibition over CDK1 inhibition” value is “A (A indicates [fold] > 500)” and the concentration for half-maximal inhibition (IC50) is above 1000 nM. Also, on CDK2, the “CDK2/CDK7: Selectivity of CDK7 inhibition over CDK2 inhibition” value is “C (C indicates [fold] ≤ 50)” and the IC50 is above 1000 nM.
Consider `CC(C)c1cnn2c(NCc3ccccc3-c3nccc4cc(N)ccc34)nc(O[C@@H]3CCCN(CCOCCOCCNC(=O)CNc4cccc5c4C(=O)N(C4CCC(=O)NC4=O)C5=O)C3)nc12` (stereo partly drawn) [Compound 5], for which, at CDK5, the “CDK5/CDK7: Selectivity of CDK7 inhibition over CDK5 inhibition” value was “A (A indicates [fold] > 500)” and the IC50 was above 1000 nM. Further, the IC50 on CDK7/CycH/MNAT1 was at most 100 nM. Moreover, on CDK1, the “CDK1/CDK7: Selectivity of CDK7 inhibition over CDK1 inhibition” value is “A (A indicates [fold] > 500)” and the IC50 was above 1000 nM. For the same molecule, on CDK2, the “CDK2/CDK7: Selectivity of CDK7 inhibition over CDK2 inhibition” value is “A (A indicates [fold] > 500)” and the half-inhibitory concentration (IC50) was above 1000 nM.
For the molecule `CC(C)c1cnn2c(NCc3ccccc3-c3nccc4cc(N)ccc34)nc(O[C@@H]3CCCN(CCOCCOCCOCCNC(=O)CNc4cccc5c4C(=O)N(C4CCC(=O)NC4=O)C5=O)C3)nc12` (stereo partly drawn) [Compound 6], at CDK5, the “CDK5/CDK7: Selectivity of CDK7 inhibition over CDK5 inhibition” value was “A (A indicates [fold] > 500)” and the IC50 is above 1000 nM. The half-inhibitory concentration (IC50) at CDK7/CycH/MNAT1 is at most 100 nM. In addition, at CDK1, the “CDK1/CDK7: Selectivity of CDK7 inhibition over CDK1 inhibition” value was “A (A indicates [fold] > 500)” and the concentration for half-maximal inhibition (IC50) was above 1000 nM. At CDK2, the “CDK2/CDK7: Selectivity of CDK7 inhibition over CDK2 inhibition” value is “A (A indicates [fold] > 500)” and the half-maximal inhibitory concentration (IC50) is above 1000 nM.
For the molecule `CC(C)c1cnn2c(NCc3ccccc3-c3nccc4cc(NCCOCCOCCOCCNC(=O)CNc5cccc6c5C(=O)N(C5CCC(=O)NC5=O)C6=O)ccc34)nc(O[C@@H]3CCCNC3)nc12` (stereo partly drawn) [Compound 8], on CDK5, the “CDK5/CDK7: Selectivity of CDK7 inhibition over CDK5 inhibition” value was “B (B indicates 50 < [fold] ≤ 500)” and the half-maximal inhibitory concentration (IC50) was above 1000 nM. Further, on CDK7/CycH/MNAT1, the half-inhibitory concentration (IC50) is at most 100 nM. On CDK1, the “CDK1/CDK7: Selectivity of CDK7 inhibition over CDK1 inhibition” value is “A (A indicates [fold] > 500)” and the IC50 is above 1000 nM. Further, at CDK2, the “CDK2/CDK7: Selectivity of CDK7 inhibition over CDK2 inhibition” value is “A (A indicates [fold] > 500)” and the IC50 is above 1000 nM.
For the molecule `CN[C@@H](C)C(=O)N[C@H](C(=O)N1CCC[C@H]1c1nc(C(=O)c2cccc(OCCOCCOCCNc3ccc4c(-c5ccccc5CNc5nc(O[C@@H]6CCCNC6)nc6c(C(C)C)cnn56)nccc4c3)c2)cs1)C1CCCCC1` [Compound 18], at CDK5, the “CDK5/CDK7: Selectivity of CDK7 inhibition over CDK5 inhibition” value was “A (A indicates [fold] > 500)” and the IC50 is above 1000 nM. Also, the IC50 on CDK7/CycH/MNAT1 was at most 100 nM. Besides, at CDK1, the “CDK1/CDK7: Selectivity of CDK7 inhibition over CDK1 inhibition” value is “A (A indicates [fold] > 500)” and the IC50 is above 1000 nM. At CDK2, the “CDK2/CDK7: Selectivity of CDK7 inhibition over CDK2 inhibition” value is “A (A indicates [fold] > 500)” and the 50% inhibitory concentration (IC50) was above 1000 nM.
For `Cc1ncsc1-c1ccc(CNC(=O)[C@@H]2C[C@@H](O)CN2C(=O)[C@@H](NC(=O)C2(F)CC2)C(C)(C)C)c(OCCOCCOCCOCCOCCOCCNc2ccc3c(-c4ccccc4CNc4nc(O[C@@H]5CCCNC5)nc5c(C(C)C)cnn45)nccc3c2)c1` [Compound 23], on CDK5, the “CDK5/CDK7: Selectivity of CDK7 inhibition over CDK5 inhibition” value is “A (A indicates [fold] > 500)” and the IC50 is above 1000 nM. Moreover, the half-maximal inhibitory concentration (IC50) on CDK7/CycH/MNAT1 is at most 100 nM. Besides, at CDK1, the “CDK1/CDK7: Selectivity of CDK7 inhibition over CDK1 inhibition” value was “A (A indicates [fold] > 500)” and the IC50 is above 1000 nM. For the same molecule, at CDK2, the “CDK2/CDK7: Selectivity of CDK7 inhibition over CDK2 inhibition” value was “A (A indicates [fold] > 500)” and the concentration for half-maximal inhibition (IC50) was above 1000 nM.
With `Cc1ncsc1-c1ccc(CNC(=O)[C@@H]2C[C@@H](O)CN2C(=O)[C@@H](NC(=O)C2(F)CC2)C(C)(C)C)c(OCCN2CCC(N3CCC(CNc4ccc5c(-c6ccccc6CNc6nc(N[C@@H]7CCCNC7)nc7c(C(C)C)cnn67)nccc5c4)CC3)CC2)c1` [Compound 29], at CDK5, the “CDK5/CDK7: Selectivity of CDK7 inhibition over CDK5 inhibition” value was “B (B indicates 50 < [fold] ≤ 500)” and the IC50 was above 1000 nM. Also, the IC50 on CDK7/CycH/MNAT1 is at most 100 nM. On CDK1, the “CDK1/CDK7: Selectivity of CDK7 inhibition over CDK1 inhibition” value was “B (B indicates 50 < [fold] ≤ 500)” and the half-inhibitory concentration (IC50) is above 1000 nM. Besides, at CDK2, the “CDK2/CDK7: Selectivity of CDK7 inhibition over CDK2 inhibition” value is “B (B indicates 50 < [fold] ≤ 500)” and the IC50 is above 1000 nM.
Take `CC(C)c1cnn2c(NCc3ccccc3-c3nccc4cc(N5CCN(CC6CCN(c7cc8c(cc7F)C(=O)N(C7CCC(=O)NC7=O)C8=O)CC6)CC5)ccc34)nc(O[C@@H]3CCCNC3)nc12` (stereo partly drawn) [Compound 35]: at CDK5, the “CDK5/CDK7: Selectivity of CDK7 inhibition over CDK5 inhibition” value is “B (B indicates 50 < [fold] ≤ 500)” and the IC50 is above 1000 nM. For the same molecule, the IC50 at CDK7/CycH/MNAT1 is 100 to 1000 nM. Also, on CDK1, the “CDK1/CDK7: Selectivity of CDK7 inhibition over CDK1 inhibition” value was “B (B indicates 50 < [fold] ≤ 500)” and the IC50 is above 1000 nM. In addition, at CDK2, the “CDK2/CDK7: Selectivity of CDK7 inhibition over CDK2 inhibition” value is “B (B indicates 50 < [fold] ≤ 500)” and the concentration for half-maximal inhibition (IC50) is above 1000 nM.
For `CC(C)c1cnn2c(NCc3ccccc3-c3nccc4cc(N5CCC(CN6CCN(c7cc8c(cc7F)C(=O)N(C7CCC(=O)NC7=O)C8=O)CC6)CC5)ccc34)nc(O[C@@H]3CCCNC3)nc12` (stereo partly drawn) [Compound 36], on CDK5, the “CDK5/CDK7: Selectivity of CDK7 inhibition over CDK5 inhibition” value is “B (B indicates 50 < [fold] ≤ 500)” and the 50% inhibitory concentration (IC50) is above 1000 nM. Moreover, at CDK7/CycH/MNAT1, the IC50 is at most 100 nM. Moreover, at CDK1, the “CDK1/CDK7: Selectivity of CDK7 inhibition over CDK1 inhibition” value was “B (B indicates 50 < [fold] ≤ 500)” and the IC50 was above 1000 nM. Moreover, at CDK2, the “CDK2/CDK7: Selectivity of CDK7 inhibition over CDK2 inhibition” value was “B (B indicates 50 < [fold] ≤ 500)” and the half-maximal inhibitory concentration (IC50) is above 1000 nM.
